Test results from ChEMBL document CHEMBL1122265, “Nitrogen bridgehead compounds. 33. New antiallergic 4H-pyrido[1,2-a]pyrimidin-4-ones. 2” (1983).
Active and inactive are the calls of the source. The calls are words filed in the database; no cut-off is given here.

Key:
Rattus norvegicus [1] = test: Antiallergic activity in rat reaginic passive cutaneous anaphylaxis (PCA) test upon peroral administration; assay type: functional; conditions: po, read-out: ID50 (the source's name)
Rattus norvegicus [2] = test: Antiallergic activity in rat reaginic passive cutaneous anaphylaxis (PCA) test upon intravenous administration; assay type: functional; conditions: read-out: ID50 (the source's name)
Rattus norvegicus [3] = test: Antiallergic activity in rat reaginic passive cutaneous anaphylaxis (PCA) test upon intravenous administration; Insoluble; assay type: functional, organism-based
Rattus norvegicus [4] = test: Antiallergic activity in rat reaginic passive cutaneous anaphylaxis (PCA) test upon peroral administration; NA means inactive; assay type: functional, organism-based

SMILES	ED50 (Rattus norvegicus [1])	ED50 (Rattus norvegicus [2])	ID50 (Rattus norvegicus [3])	ID50 (Rattus norvegicus [4])
CC1CCC(C)(N=Nc2ccccc2)c2ncc(C(=O)O)c(=O)n21 (centres undefined)	> 100 µmol/kg	35 µmol/kg		
CC1CCC(=NNc2cc(Cl)ccc2O)c2ncc(C(=O)O)c(=O)n21 (centres undefined)	> 100 µmol/kg		Insoluble	
CC1CCC(=NNc2ccc3ccccc3c2)c2ncc(C(=O)O)c(=O)n21 (centres undefined)	> 100 µmol/kg	0.77 µmol/kg		
COc1cc(NN=C2CCC(C)n3c2ncc(C(=O)O)c3=O)cc(OC)c1 (centres undefined)	100 µmol/kg	0.42 µmol/kg		
O=C(O)c1cc(=O)c2c(OCC(O)COc3cccc4oc(C(=O)O)cc(=O)c34)cccc2o1 [CROMOLYN SODIUM]		1 µmol/kg		inactive
CCc1nc2n(c(=O)c1C(N)=O)C(C)CCC2=NNc1ccccc1 (centres undefined)	> 100 µmol/kg		Insoluble	
CC1CCC(=NNc2cc([N+](=O)[O-])cc([N+](=O)[O-])c2)c2ncc(C(=O)O)c(=O)n21 (centres undefined)	> 100 µmol/kg	3.4 µmol/kg		
CC1CCC(=NN(C)c2ccccc2)c2ncc(C(=O)O)c(=O)n21 (centres undefined)	> 100 µmol/kg	52.4 µmol/kg		
Cc1cccc(Cl)c1NN=C1CCC(C)n2c1ncc(C(=O)O)c2=O (centres undefined)	> 100 µmol/kg		Insoluble	
CC1CCC(=NNc2ccc(Cl)cc2Cl)c2ncc(C(=O)O)c(=O)n21 (centres undefined)	> 100 µmol/kg		Insoluble	
CC1CCC(=NNc2ccccc2C(=O)O)c2ncc(C(=O)O)c(=O)n21 (centres undefined)	> 100 µmol/kg	0.48 µmol/kg		
Cc1cc(C)c(NN=C2CCC(C)n3c2ncc(C(=O)O)c3=O)c(C)c1 (centres undefined)	320 µmol/kg		Insoluble	
CC1CCC(=NNc2cccnc2)c2ncc(C(=O)O)c(=O)n21 (centres undefined)	> 320 µmol/kg	0.54 µmol/kg		
CCOC(=O)c1cnc2n(c1=O)C(C)CCC2=NNc1c(C)n(C)n(-c2ccccc2)c1=O (centres undefined)	> 100 µmol/kg	95 µmol/kg		
CC1CCC(=NNc2cc(Cl)cc(Cl)c2)c2ncc(C(=O)O)c(=O)n21 (centres undefined)	> 100 µmol/kg	13.3 µmol/kg		
Cc1cccc(NN=C2CCC(C)n3c2ncc(C(=O)O)c3=O)c1C (centres undefined)	> 100 µmol/kg		Insoluble	
CC1CCC(=NNc2ccc(Cl)c(Cl)c2)c2ncc(C(=O)O)c(=O)n21 (centres undefined)	> 100 µmol/kg	0.89 µmol/kg		
CCc1nc2n(c(=O)c1C(=O)O)C(C)CCC2=NNc1ccccc1 (centres undefined)	> 320 µmol/kg	> 100 µmol/kg		
CC1CCC(=NNc2ccccc2)c2ncc(C(=O)O)c(=O)n21 (centres undefined)	1.2 µmol/kg	0.6 µmol/kg		
Cc1cccc(C)c1NN=C1CCC(C)n2c1ncc(C(=O)O)c2=O (centres undefined)	320 µmol/kg		Insoluble	
Cc1cc(NN=C2CCC(C)n3c2ncc(C(=O)O)c3=O)ccc1Br (centres undefined)	> 100 µmol/kg		Insoluble	

SMILES	ED50 (Rattus norvegicus [1])	ED50 (Rattus norvegicus [2])	ID50 (Rattus norvegicus [3])	ID50 (Rattus norvegicus [4])
CC1CC/C(=N\N)c2ncc(C(=O)O)c(=O)n21 (centres undefined)	> 100 µmol/kg	42 µmol/kg		
CC1CCC(C)(N=Nc2ccccc2C(=O)O)c2ncc(C(=O)O)c(=O)n21 (centres undefined)	> 100 µmol/kg	> 100 µmol/kg		
CC1CCC(=NNc2nn[nH]n2)c2ncc(C(=O)O)c(=O)n21 (centres undefined)	> 100 µmol/kg	> 100 µmol/kg		
CC1CCC(=NNc2c(Cl)cccc2Cl)c2ncc(C(=O)O)c(=O)n21 (centres undefined)	> 100 µmol/kg		Insoluble	
Cc1nc2n(c(=O)c1C(N)=O)C(C)CCC2=NNc1ccccc1 (centres undefined)	> 100 µmol/kg		Insoluble	
CC1CCC(N=Nc2ccccc2)=C2N(C)C=C(C(=O)O)C(=O)N21 (centres undefined)	> 100 µmol/kg		Insoluble	
Cc1c(NN=C2CCC(C)n3c2ncc(C(=O)O)c3=O)c(=O)n(-c2ccccc2)n1C (centres undefined)	> 100 µmol/kg	31 µmol/kg		
Cc1cc(C)c(NN=C2CCC(C)n3c2ncc(C(=O)O)c3=O)cc1C (centres undefined)	320 µmol/kg		Insoluble	
CC1CCC(=NNc2cc(C(F)(F)F)cc(C(F)(F)F)c2)c2ncc(C(=O)O)c(=O)n21 (centres undefined)	> 100 µmol/kg		Insoluble	
CC1CCC(=NNc2ccccn2)c2ncc(C(=O)O)c(=O)n21 (centres undefined)	> 100 µmol/kg	3.2 µmol/kg		
Cc1cc(C)cc(NN=C2CCC(C)n3c2ncc(C(=O)O)c3=O)c1 (centres undefined)	> 320 µmol/kg		Insoluble	
CC1CCC(N=Nc2ccccc2C(=O)O)=C2N(C)C=C(C(=O)O)C(=O)N21 (centres undefined)	> 100 µmol/kg	> 100 µmol/kg		
CC1CCC(=NNc2ccccc2C(=O)O)c2ncc(C(=O)NO)c(=O)n21 (centres undefined)	> 100 µmol/kg	> 100 µmol/kg		
COc1cc(OC)c(NN=C2CCC(C)n3c2ncc(C(=O)O)c3=O)cc1Cl (centres undefined)	> 100 µmol/kg		Insoluble	
CC1CCC(=NNc2ccc(Br)cc2Cl)c2ncc(C(=O)O)c(=O)n21 (centres undefined)	> 100 µmol/kg		Insoluble	
Cc1nc2n(c(=O)c1C(=O)O)C(C)CCC2=NNc1ccccc1 (centres undefined)	> 320 µmol/kg	> 100 µmol/kg		
Cc1ccc(NN=C2CCC(C)n3c2ncc(C(=O)O)c3=O)cc1C (centres undefined)	> 100 µmol/kg	6.5 µmol/kg		
CC1CCC(=NNc2cccc3ccccc23)c2ncc(C(=O)O)c(=O)n21 (centres undefined)	> 320 µmol/kg		Insoluble	
CC1CCC(=NNc2ccc3c(c2)OCO3)c2ncc(C(=O)O)c(=O)n21 (centres undefined)	> 100 µmol/kg	0.33 µmol/kg		
CNN=C1CCC(C)n2c1ncc(C(=O)O)c2=O (centres undefined)	> 100 µmol/kg	17.5 µmol/kg		
CC1CCC(=NNc2ccccc2)c2ncc(C(=O)NO)c(=O)n21 (centres undefined)	> 100 µmol/kg	> 100 µmol/kg		
